Data published in patent US12221422B2, “Compounds and their use for the treatment of alpha1-antitrypsin deficiency” (CENTESSA PHARMACEUTICALS (UK) LIMITED, priority 2018, dated 2025).

How the values were obtained:
Aqueous solubility = format: physicochemical; conditions: thermodynamic from solid; water, shaken for 5 minutes until clear solution
Method: Compounds of the invention were shaken for 5 minutes with increasing amounts of water until a clear solution had formed. Using this method the solubility of N,N-dimethyl-4-((6-oxopyrimidin-1(6H)-yl)methyl)benzamide was greater than 100 mg/ml.

[1] = Plasma protein binding, rat plasma (rapid equilibrium dialysis); format: in vitro ADME; conditions: 37° C.
Method: The extent to which compounds of the invention bound to plasma proteins such as albumin and alpha-1 acid glycoprotein within human, rat or mouse plasma was determined by rapid equilibrium dialysis. Compounds were incubated at 5 μM for 4 hours at 37° C. Plasma protein binding for N,N-dimethyl-4-((6-oxopyrimidin-1(6H)-yl)methyl)benzamide in mouse plasma was 37.3%, in rat plasma was 14.8% and in human plasma was 30.6%.

human Z A1AT = human Z A1AT (Homo sapiens, UniProt P01009, E366K); assay: A1AT cell secretion assay using HEK-Z cells (ELISA); format: cell-based; design: expressed in transfected cells; host or cells: HEK-Z (HEK-EBNA cells containing the Z A1AT plasmid); conditions: HEK-Z cells, 10, 33, 100 and 333 nM, 48 h, cell supernatant
human Z A1AT, sequence (P01009 25-418 E366K): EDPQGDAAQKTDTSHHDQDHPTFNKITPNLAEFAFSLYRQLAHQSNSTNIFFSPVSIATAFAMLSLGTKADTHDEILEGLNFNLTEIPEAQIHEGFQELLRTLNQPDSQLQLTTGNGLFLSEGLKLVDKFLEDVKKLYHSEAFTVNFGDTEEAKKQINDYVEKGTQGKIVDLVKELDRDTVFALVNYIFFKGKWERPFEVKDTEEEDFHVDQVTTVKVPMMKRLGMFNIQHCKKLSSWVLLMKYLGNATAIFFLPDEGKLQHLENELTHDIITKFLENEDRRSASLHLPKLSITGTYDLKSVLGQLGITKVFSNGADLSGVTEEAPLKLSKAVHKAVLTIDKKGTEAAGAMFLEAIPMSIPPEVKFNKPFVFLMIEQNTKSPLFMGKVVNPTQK
Method: HEK-Z cells, a human embryonic kidney cell line stably transfected with the human Z A1AT gene, were plated into 96 well plates (3.0×10^5 cells/ml with 200 μl of media/well) overnight at 37° C. in a humidified atmosphere containing 5% CO2. Following incubation cells were washed with 200 μl serum-free media three times and media was replaced with treatments in quadruplicate using serum-free media containing either vehicle, 10 μM suberanilohydroxamic acid (SAHA), N,N-dimethyl-4-((6-oxopyrimidin-1(6H)-yl)methyl)benzamide (at concentrations of 10, 33, 100 and 333 nM), N,N-(bis-methyl-d3)-4-((6-oxopyrimidin-1(6H)-yl)methyl)benzamide (at concentrations of 10, 33, 100 and 333 nM) or N-methyl-4-((6-oxopyrimidin-1(6H)-yl)methyl)benzamide (at concentrations of 10, 33, 100 and 333 nM) for 48 h in a 37° C. incubator in a final volume of 200 μl. At the end of the incubation step the supernatants were removed from the wells, centrifuged at 1000×g at 4° C. for 10 min and were assayed for human A1AT levels by ELISA (Human Serpin A1/α1-antitrypsin duo set ELISA, R& D Systems, DY1268) per manufacturer's instructions.
Briefly, a 96 well plate was coated with human A1AT capture antibody overnight at room temperature (1:180 dilution from stock, 100 μl final volume/well). The capture antibody was then removed and wells washed three times with 300 μl wash buffer (0.05% Tween 20 in PBS) and then 200 μl reagent diluent ([…]) was incubated in each well for 1 h at room temperature. […] After which, 50 μl stop solution (2M H2SO4) was added and optical density (OD) of each well was read at 450 nm with 570 nm blank subtracted from each well using a microplate reader. A 4 parameter logistic curve was constructed using GraphPad Prism 7 and A1AT concentrations were determined in each sample by interpolation from a standard curve and multiplying by the appropriate dilution factor.
The amount of A1AT secreted from transfected HEK-EBNA cells into the media was measured by ELISA. […]

Pharmacokinetics in mice = format: in vivo; conditions: male C57BI/6 mice
Method: N,N-dimethyl-4-((6-oxopyrimidin-1(6H)-yl)methyl)benzamide was administered to male C57BI/6 mice intravenously (2 mg/kg) or orally (10 mg/kg) by gavage. Whole blood diluted with water was prepared from these dosed animals over a time course up to 24 hours post dose to allow blood concentrations of drug to be measured by UPLC-MS/MS.

[2] = test system: TA98, TA100, WP2 uvrA, TA1535, TA1537 bacterial strains; assay: Bacterial reverse mutation test; conditions: up to 5000 μg/plate, presence and absence of S-9 mix
Method: The purpose of the bacterial reverse mutation test is to assess the mutagenic potential of the test item by its ability to revert the specified bacterial strains from auxotrophic growth to prototrophy. The assay detects point (gene) mutations at specific histidine or tryptophan loci, which may be induced by compounds that cause base pair substitutions or frameshift mutations in the genome of these organisms. Assays were performed in the presence and absence of an exogenous mammalian oxidative metabolising system (S-9 mix, a liver post-mitochondrial fraction derived from the livers of Aroclor 1254 treated rats), to mimic mammalian metabolism. The test methodology was based on established procedures for bacterial mutagenicity testing.
N,N-dimethyl-4-((6-oxopyrimidin-1(6H)-yl)methyl)benzamide was tested up to the guideline regulatory maximum dose level of 5000 μg/plate in all strains in the presence and absence of […].
There were no increases in revertant numbers, greater than the defined fold-increases (to twice the relevant negative control value for TA98, TA100 or WP2 uvrA or three times the relevant negative control value for TA1535 or TA1537), in any strain at any dose level of N,N-dimethyl-4-((6-oxopyrimidin-1(6H)-yl)methyl)benzamide, in the presence or absence of S-9 mix, under plate incorporation conditions.

[3] = test system: panel of enzymes, ion channels and receptors; assay: DiscoverX Safety47 panel; conditions: at 10 μM
Method: Compounds of the invention were tested against the DiscoverX Safety47™ panel. […] No target was inhibited by more than 25% at this concentration.

[4] = mouse, whole blood, iv 2 mg/kg or oral 10 mg/kg (route not stated), blood

CN(C)C(=O)c1ccc(Cn2cnccc2=O)cc1 [N,N-dimethyl-4-((6-oxopyrimidin-1(6H)-yl)methyl)benzamide]
solubility at 5 min (Aqueous solubility): > 100 mg/mL | fraction unbound at 4 h, 5 μM [1]: 0.852 | secretion of Z A1AT as measured by ELISA (human Z A1AT): stimulates secretion of Z A1AT in a dose dependent manner | Oral Bioavailability (F, AUCINF) (Pharmacokinetics in mice; oral 10 mg/kg vs iv 2 mg/kg): 73% | AUC (Pharmacokinetics in mice; [4]): 15600 ng·h/mL | AUC(0-inf) (Pharmacokinetics in mice; [4]): 15600 ng·h/mL | half-life (Pharmacokinetics in mice; mouse, whole blood, iv 2 mg/kg or oral 10 mg/kg, read-out: Half-life in blood (t1/2) (converted)): 1.9 h | clearance (Pharmacokinetics in mice; mouse, whole blood, iv 2 mg/kg or oral 10 mg/kg, read-out: Observed clearance): 7.8 mL/min/kg | Vd (Pharmacokinetics in mice; mouse, whole blood, iv 2 mg/kg or oral 10 mg/kg, read-out: Volume of distribution (Vz)): 1.3 L/kg | Cmax (Pharmacokinetics in mice; mouse, whole blood, oral 10 mg/kg, blood): 9310 ng/mL | mutagenicity (revertant numbers) ([2]; all strains, plate incorporation): not mutagenic | toxicity to bacterial strains [2]: no evidence of toxicity | inhibition of any target of the Safety47 panel [3]: ≤ 25%
